Results published in US6887882B2, “Pharmaceutical compositions comprising chelidonine or derivatives thereof” (priority 2002, dated 2005).

What was measured:
hKv1.5 channel [1] = biological target: T1, hKv1.5 channel (Homo sapiens, UniProt P22460); experiment: Block of hKv1.5 channel currents expressed in Ltk-cells (whole cell patch clamp); assay type: cell-based
T1 construct: expressed in transfected cells; host or cells: mouse Ltk- cells (pMSVneo vector, G418 selection)
Protocol: Cell line selectively expressing a specific cardiac K^+ channel gene was prepared according to the method described in the thesis (Yang, et al., Inhibition of cardiac potassium currents by the vesnarinone analog OPC-18790: comparison with quinidine and dofetilide. J Pharmacol Exp Ther. 1997, 280: 1170-1175; Kwak, et al., Phosphorylation is required for alteration of Kv1.5 K^+ channel function by the Kvbeta 1.3 subunit. J Biol Chem 1999, 274: 25355-25361).
First, cDNAs for human cardiac K^+ channel genes such as hKv 1.5 and HERG were subcloned into pMSVneo which contain dexamethasone-inducible murine mammary tumor virus promoter controlling transcription of the inserted cDNA and a gene conferring neomycin resistance driven by the SV40 early promotor. The cDNA-containing expression vector was transfected into mouse Ltk-cells with lipofectamine. After 24 hours, the cells selection with […] of G418 was performed for 2 weeks or until discrete foci formed. Individual foci were isolated, maintained in 0.25 μg/ml of G418, and screened by Norhtern analysis and electrophysiological analysis. Transfected cells were cultured in Dulbeco's modified Eagle medium (DMEM) supplemented with 10% horse serum and 0.25 μg/ml of G418, under 5% CO2. Transiently transfected cells were cultured in DMEM media supplemented with only 10% horse serum, differently from stable cell lines.
(§1) Currents in human atrial myocytes and cell lines were recorded by using the whole cell configuration of the gigaohm-seal patch clamp techniques (Kwak, et al., Phosphorylation is required for alteration of Kv1.5 K^+ channel function by the Kvbeta 1.3 subunit. J Biol Chem 1999, 274: 25355-25361). First, electrical signals were amplified with a patch clamp amplifier (Axon Instruments, Axopatch-1D, Foster, USA). Currents were digitized by a signal converter (Digidata 1200, Axon Instruments) and stored on the hard disk of a computer. The micropipette with a resistance of 1˜2MΩ (Kimax-51, 1.5=14 1.8×10 mm) for current recording, was pulled out by a 2-stage pipette puller (Narishige, PP-83). The intracellular pipette-filling solution for whole cell mode contained 100 mM KCl, 10 mM HEPES, 5 mM K4BAPTA, 5 mM K2ATP and 1 mM MgCl2 (pH 7.2). The extracellular solution contained 130 mM NaCl, 4 mM KCl, 1.8 mM CaCl2, 1 mM MgCl2, 10 mM HEPES and 10 mM glucose (pH 7.35).
The current traces were recorded with a depolarizing pulse of +50 mV from a holding potential of −80 mV, followed by a repolarizing pulse of −50 mV in the Ltk-cells. To observe the concentration-dependent block of hKv1.5 channel currents by each compound, steady-state currents taken at the end of the depolarizing pulse of +50 mV were normalized to the control obtained in the absence of each compound
FIG. 1e is concentration-response curves showing the relative steady-state currents obtained at the end of the depolarizing pulse against the concentration of each compound. Data were fitted with a Hill equation.
IC50 values (50% inhibitory concentration, μM) of compounds 1˜14 on the hKv1.5 channel currents were determined, and Hill values were calculated from the concentration-response curves of the respective compounds using the Hill equation.

[2] = system: K+ channel current in human atrial myocytes; experiment: Effect on the K+ current in human atrial myocytes (whole cell patch clamp); assay type: cell-based
Protocol: as §1
Isolation of human atrial myocytes was carried out by the Wang, et al.'s method (Effects of flecainide, quinidine, and 4-aminopyridine on transient outward and ultrarapid delayed rectifier currents in human atrial myocytes. J Pharmacol Exp Ther 1995, 272: 184-196). Specimens of human right atrial appendage were obtained from the hearts of patients undergoing cardiopulmonary bypass surgery. […]

mouse = conditions: intravenously; cited from earlier work
hKv1.5 channel [3] = biological target: T1, hKv1.5 channel; experiment: Voltage-dependent block of hKv1.5 channel currents expressed in Ltk-cells; assay type: cell-based; conditions: 10 μM
Description: To quantify the voltage-dependent block of chelidonine (compound 1), the relative steady state current, Ichelidonine/Icontrol was plotted as a function of membrane potential (FIG. 2). The steady-state currents were obtained at the end stage of 250 ms depolarizing pulses, while increasing the membrane voltage by 10 mV from −80 to +60 mV. The dotted line denotes the activation curve of hKv1.5 channel current expressed in Ltk-cells.

hKv1.5 channel [4] = biological target: T1, hKv1.5 channel; experiment: Channel state-dependency of hKv1.5 block (tail currents); assay type: cell-based; conditions: 10 μM; tail currents at -50 mV after +50 mV pulse
Description: We tested the channel state-dependency of hKv1.5 block by chelidonine (FIG. 3).
Under control conditions, the tail currents were rapidly deactivated.

T1 sequence (P22460 whole entry): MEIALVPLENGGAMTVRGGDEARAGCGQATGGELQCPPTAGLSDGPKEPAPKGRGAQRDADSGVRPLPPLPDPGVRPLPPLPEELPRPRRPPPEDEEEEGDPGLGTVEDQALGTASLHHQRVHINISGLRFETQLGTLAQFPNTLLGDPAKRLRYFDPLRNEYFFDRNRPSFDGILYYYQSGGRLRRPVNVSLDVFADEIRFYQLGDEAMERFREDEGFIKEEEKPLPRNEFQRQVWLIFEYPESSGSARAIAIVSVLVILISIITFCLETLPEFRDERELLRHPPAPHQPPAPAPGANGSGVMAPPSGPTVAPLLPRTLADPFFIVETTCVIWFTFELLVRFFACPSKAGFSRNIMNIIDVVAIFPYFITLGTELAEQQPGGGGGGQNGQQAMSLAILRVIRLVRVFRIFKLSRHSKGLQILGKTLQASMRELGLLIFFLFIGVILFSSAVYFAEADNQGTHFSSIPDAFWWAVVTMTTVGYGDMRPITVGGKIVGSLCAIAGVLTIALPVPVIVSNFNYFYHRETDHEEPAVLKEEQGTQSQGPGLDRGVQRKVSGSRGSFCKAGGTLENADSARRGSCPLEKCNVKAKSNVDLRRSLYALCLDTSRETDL

CN1Cc2c(ccc3c2OCO3)[C@@H]2[C@H]1c1cc3c(cc1C[C@@H]2O)OCO3 [Compound 1, [5bR-(5bα,6β,12bα)]-5b,6,7,12b,13, 14-hexahydro-13-methyl[1,3]benzodioxolo[5,6c]-1,3-dioxolo[4,5-i]phenanthridin-6-ol]
Hill value (hKv1.5 channel [1]; from concentration-response curves using the Hill equation): 1.07
type of hKv1.5 block (hKv1.5 channel [1]; hKv1.5 expressed in Ltk-cells, FIGS. 1a to 1e): predominantly blocked the open ion channels
effect on the hKv1.5 channel currents (hKv1.5 channel [1]; hKv1.5 expressed in Ltk-cells, FIGS. 1a to 1d): concentration-dependent inhibitory effects
IC50 (hKv1.5 channel [1]; hKv1.5 expressed in Ltk-cells, steady-state current at end of +50 mV depolarizing pulse, holding -80 mV): 11.5 ± 3.1 µM
effect on peak amplitude of outward K+ current ([2]; 10 μM): decreased the peak amplitude
inhibition at 10 µM ([2]; compared to control, n=7, read-out: inhibition of steady-state currents at the end of the depolarizing pulse of +50 mV): 41 ± 5%
toxicity (mouse): 34.6 ± 2.44 mg/kg
voltage-dependence of block (hKv1.5 channel [3]; between 0 mV and +60 mV): weak voltage-dependence
δ value (Woodhull equation) (hKv1.5 channel [3]; between 0 mV and +60 mV, n=7): 0.16±0.01
voltage-dependence of block (hKv1.5 channel [3]; between -30 mV and 0 mV): strong voltage-dependence
channel state-dependency of hKv1.5 block (hKv1.5 channel [4]): acts as an open channel blocker
